The target of the experiment is N1 (A/HongKong/156/97 (H5N1)) sialidase (Influenza A virus, UniProt Q9W7Y7). Put plainly: biochemical.

Among the data in paper PMC3060605 (Nature Communications, 2010) are Ki values, retold here.

As usually defined, the pKi is the Ki on a negative log10 scale, so that one unit is a factor of ten.

pKi: −log10 of the molar value.

N1 (A/HongKong/156/97 (H5N1)) sialidase, sequence (Q9W7Y7 whole entry, looked up): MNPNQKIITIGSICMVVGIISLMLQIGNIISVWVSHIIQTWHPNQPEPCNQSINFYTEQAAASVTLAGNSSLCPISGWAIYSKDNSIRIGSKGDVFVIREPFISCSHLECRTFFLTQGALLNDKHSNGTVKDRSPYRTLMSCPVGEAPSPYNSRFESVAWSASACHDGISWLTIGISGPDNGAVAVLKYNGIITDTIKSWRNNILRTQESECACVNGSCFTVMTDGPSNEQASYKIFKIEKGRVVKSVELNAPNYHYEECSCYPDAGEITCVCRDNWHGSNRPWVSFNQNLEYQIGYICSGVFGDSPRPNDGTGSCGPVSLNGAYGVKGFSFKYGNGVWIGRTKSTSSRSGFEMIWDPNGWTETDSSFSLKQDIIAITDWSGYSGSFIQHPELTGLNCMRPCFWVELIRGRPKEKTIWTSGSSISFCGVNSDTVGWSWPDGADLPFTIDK

In the case of `CC(=O)N[C@H]1[C@H]([C@H](O)[C@H](O)CO)OC(C(=O)O)=C[C@@H]1N=C(N)N` [Compound 1, zanamivir], the pKi is 9.77.
